# Test system: M17-TAU P301L cells
# Assay: TAU cytotoxicity assay: LDH leakage of retinoic acid incubated M17-TAU P301L cells
# Assay type: cell-based, human
# Conditions: Homo sapiens, 168 h, reduction of LDH activity of retinoic acid incubated M17-TAU P301L cells, 7 days
# In short: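 M17 neuroblastoma cells stably expressing human TAU P301L, seeded at 2500 cells/cm2 in Optimem with 1% FCS, then given 2.5 μM retinoic acid (stock before 1:1 addition) and grown 7 days at 37 °C. Cytotoxicity read as LDH leaked into medium; EC50 derived from these measurements.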
row,SMILES,EC50 [nM]
1,"CCc1ccc(N2CCC(C(=O)NCCc3c[nH]c4ccc(Cl)cc34)C2=O)cc1 (stereo not shown) [Example D40, N-(2-(5-chloro-1H-indol-3-yl)ethyl)-1-(4-ethylphenyl)-2-oxopyrrolidine-3-carboxamide]",91
2,"Cc1nc(-c2cnccn2)sc1C(=O)NCCc1c[nH]c2ccc(Cl)cc12 [Example D73, N-(2-(5-chloro-1H-indol-3-yl)ethyl)-4-methyl-2-(pyrazin-2-yl)thiazole-5-carboxamide]",515
3,"Cc1noc(-c2ccccc2)c1C(=O)NCCc1c[nH]c2ccc(Cl)cc12 [Example D115, N-(2-(5-chloro-1H-indol-3-yl)ethyl)-3-methyl-5-phenylisoxazole-4-carboxamide]",269
4,"Cn1nc(C(=O)NCCc2c[nH]c3ccc(Cl)cc23)cc1-c1ccco1 [Example D19, N-(2-(5-chloro-1H-indol-3-yl)ethyl)-5-(furan-2-yl)-1-methyl-1H-pyrazole-3-carboxamide]",23
5,"O=C(NCCc1c[nH]c2ccc(Cl)cc12)C1CCN(C2CCCCC2)C1=O (stereo not shown) [Example D76, N-(2-(5-chloro-1H-indol-3-yl)ethyl)-1-cyclohexyl-2-oxopyrrolidine-3-carboxamide]",571
6,"O=C(NCCc1c[nH]c2ccc(Cl)cc12)c1cc(Cc2cc(F)cc(F)c2)on1 [Example D131, N-(2-(5-chloro-1H-indol-3-yl)ethyl)-5-(3,5-difluorobenzyl)isoxazole-3-carboxamide]",13
7,"O=C(NCCc1c[nH]c2ccc(Cl)cc12)c1cc(Cn2cccn2)on1 [Example D42, 5-((1H-pyrazol-1-yl)methyl)-N-(2-(5-chloro-1H-indol-3-yl)ethyl)isoxazole-3-carboxamide]",92
8,"O=C(NCCc1c[nH]c2ccc(Cl)cc12)C1=N[C@H](C2CCCCC2)CO1 [Example D58, (R)-N-(2-(5-chloro-1H-indol-3-yl)ethyl)-4-cyclohexyl-4,5-dihydrooxazole-2-carboxamide]",202
9,"O=C(NCCc1c[nH]c2ccc(Cl)cc12)C1=N[C@@H](C2CCCCC2)CO1 [Example D59, (S)-N-(2-(5-chloro-1H-indol-3-yl)ethyl)-4-cyclohexyl-4,5-dihydrooxazole-2-carboxamide]",211
10,"O=C(NCCc1c[nH]c2ccc(Cl)cc12)c1cc(Cc2cccs2)on1 [Example D27, N-(2-(5-chloro-1H-indol-3-yl)ethyl)-5-(thiophen-2-ylmethyl)isoxazole-3-carboxamide]",38
11,"COc1cccc(Cc2nc(C(=O)NCCc3c[nH]c4ccc(Cl)cc34)no2)c1 [Example D177, N-(2-(5-chloro-1H-indol-3-yl)ethyl)-5-(3-methoxybenzyl)-1,2,4-oxadiazole-3-carboxamide]",29
12,"O=C(NCCc1c[nH]c2ccc(Cl)cc12)c1noc(Cc2cccc(Cl)c2)n1 [Example D190, N-(2-(5-chloro-1H-indol-3-yl)ethyl)-5-(3-chlorobenzyl)-1,2,4-oxadiazole-3-carboxamide]",25
13,"COc1ccc(Cc2nc(C(=O)NCCc3c[nH]c4ccc(Cl)cc34)no2)cc1 [Example D173, N-(2-(5-chloro-1H-indol-3-yl)ethyl)-5-(4-methoxybenzyl)-1,2,4-oxadiazole-3-carboxamide]",60
14,"N#Cc1ccc(Cc2cc(C(=O)NCCc3c[nH]c4ccc(Cl)cc34)no2)cc1 [Example D4, N-(2-(5-chloro-1H-indol-3-yl)ethyl)-5-(4-cyanobenzyl)isoxazole-3-carboxamide]",9
15,"O=C(NCCc1c[nH]c2ccc(Cl)cc12)C1CCN(c2ccc3c(c2)COC3)C1=O (stereo not shown) [Example D146, N-(2-(5-chloro-1H-indol-3-yl)ethyl)-1-(1,3-dihydroisobenzofuran-5-yl)-2-oxopyrrolidine-3-carboxamide]",1160
16,"O=C(NCCc1c[nH]c2ccc(Cl)cc12)c1cc(-c2ccco2)on1 [Example D11, N-(2-(5-chloro-1H-indol-3-yl)ethyl)-5-(furan-2-yl)isoxazole-3-carboxamide]",17
17,"O=C(NCCc1c[nH]c2ccc(Cl)cc12)C1CCN(c2ccccc2F)C1=O (stereo not shown) [Example D79, N-(2-(5-chloro-1H-indol-3-yl)ethyl)-1-(2-fluorophenyl)-2-oxopyrrolidine-3-carboxamide]",857
18,"O=C(NCCc1c[nH]c2ccc(Cl)cc12)C1CCN(c2ccc(F)c(F)c2)C1=O (stereo not shown) [Example D148, N-(2-(5-chloro-1H-indol-3-yl)ethyl)-1-(3,4-difluorophenyl)-2-oxopyrrolidine-3-carboxamide]",691
19,"CCOCc1cc(C(=O)NCCc2c[nH]c3ccc(Cl)cc23)no1 [Example D123, N-(2-(5-chloro-1H-indol-3-yl)ethyl)-5-(ethoxymethyl)isoxazole-3-carboxamide]",19
20,"Cc1ncoc1C(=O)NCCc1c[nH]c2ccc(Cl)cc12 [Example D112, N-(2-(5-chloro-1H-indol-3-yl)ethyl)-4-methyloxazole-5-carboxamide]",1250

row,SMILES,EC50 [nM]
1,"COc1ccc(Cc2nc(C(=O)NCCc3c[nH]c4ccc(Cl)cc34)no2)cc1OC [Example D178, N-(2-(5-chloro-1H-indol-3-yl)ethyl)-5-(3,4-dimethoxybenzyl)-1,2,4-oxadiazole-3-carboxamide]",125
2,"O=C(NCCc1c[nH]c2c(F)cc(Cl)cc12)c1cc(Cc2cc(F)ccc2F)on1 [Example D141, N-(2-(5-chloro-7-fluoro-1H-indol-3-yl)ethyl)-5-(2,5-difluorobenzyl)isoxazole-3-carboxamide]",233
3,"O=C(NCCc1c[nH]c2ccc(Cl)cc12)C1=NOC(Cc2ccccc2)C1 (stereo not shown) [Example D43, 5-benzyl-N-(2-(5-chloro-1H-indol-3-yl)ethyl)-4,5-dihydroisoxazole-3-carboxamide]",94
4,"COc1ccc(N2CCC(C(=O)NCCc3c[nH]c4ccc(Cl)cc34)C2=O)cc1 (stereo not shown) [Example D70, N-(2-(5-chloro-1H-indol-3-yl)ethyl)-1-(4-methoxyphenyl)-2-oxopyrrolidine-3-carboxamide]",408
5,"O=C(NCCc1c[nH]c2ccc(Cl)cc12)c1cc(Cc2ccsc2)on1 [Example D25, N-(2-(5-chloro-1H-indol-3-yl)ethyl)-5-(thiophen-3-ylmethyl)isoxazole-3-carboxamide]",35
6,"Cc1ccc(N2CCC(C(=O)NCCc3c[nH]c4ccc(Cl)cc34)C2=O)cc1C (stereo not shown) [Example D143, N-(2-(5-chloro-1H-indol-3-yl)ethyl)-1-(3,4-dimethylphenyl)-2-oxopyrrolidine-3-carboxamide]",1020
7,"Cc1ccc(N2CCC(C(=O)NCCc3c[nH]c4ccc(Cl)cc34)C2=O)cc1 (stereo not shown) [Example D133, N-(2-(5-chloro-1H-indol-3-yl)ethyl)-2-oxo-1-p-tolylpyrrolidine-3-carboxamide]",46
8,"O=C(NCCc1c[nH]c2ccc(Cl)cc12)c1nnc(-c2ccccc2)o1 [Example D52, N-(2-(5-chloro-1H-indol-3-yl)ethyl)-5-phenyl-1,3,4-oxadiazole-2-carboxamide]",158
9,"COc1cccc(N2CCC(C(=O)NCCc3c[nH]c4ccc(Cl)cc34)C2=O)c1 (stereo not shown) [Example D162, N-(2-(5-chloro-1H-indol-3-yl)ethyl)-1-(3-methoxyphenyl)-2-oxopyrrolidine-3-carboxamide]",233
10,"Cn1nc(C(=O)NCCc2c[nH]c3ccc(Cl)cc23)cc1-c1cccs1 [Example D15, N-(2-(5-chloro-1H-indol-3-yl)ethyl)-1-methyl-5-(thiophen-2-yl)-1H-pyrazole-3-carboxamide]",21
11,"O=C(NCCc1c[nH]c2ccc(Cl)cc12)C1CCN(c2cccc(F)c2)C1=O (stereo not shown) [Example D65, N-(2-(5-chloro-1H-indol-3-yl)ethyl)-1-(3-fluorophenyl)-2-oxopyrrolidine-3-carboxamide]",321
12,"CCc1cccc(N2CCC(C(=O)NCCc3c[nH]c4ccc(Cl)cc34)C2=O)c1 (stereo not shown) [Example D82, N-(2-(5-chloro-1H-indol-3-yl)ethyl)-1-(3-ethylphenyl)-2-oxopyrrolidine-3-carboxamide]",939
13,"O=C(NCCc1c[nH]c2ccc(Cl)cc12)c1cn(Cc2ccccc2)nn1 [Example D54, 1-benzyl-N-(2-(5-chloro-1H-indol-3-yl)ethyl)-1H-1,2,3-triazole-4-carboxamide]",173
14,"O=C(NCCc1c[nH]c2ccc(Cl)cc12)c1noc(Cc2ccc(OC(F)(F)F)cc2)n1 [Example D185, N-(2-(5-chloro-1H-indol-3-yl)ethyl)-5-(4-(trifluoromethoxy)benzyl)-1,2,4-oxadiazole-3-carboxamide]",42
15,"Cc1ccc(Cc2nc(C(=O)NCCc3c[nH]c4ccc(Cl)cc34)no2)cc1 [Example D181, N-(2-(5-chloro-1H-indol-3-yl)ethyl)-5-(4-methylbenzyl)-1,2,4-oxadiazole-3-carboxamide]",48
16,"O=C(NCCc1c[nH]c2ccc(Cl)cc12)C1CCN(c2c(F)cccc2F)C1=O (stereo not shown) [Example D151, N-(2-(5-chloro-1H-indol-3-yl)ethyl)-1-(2,6-difluorophenyl)-2-oxopyrrolidine-3-carboxamide]",561
17,"O=C(NCCc1c[nH]c2ccc(Cl)cc12)c1cc(CO)on1 [Example D121, N-(2-(5-chloro-1H-indol-3-yl)ethyl)-5-(hydroxymethyl)isoxazole-3-carboxamide]",105
18,"Cc1cccc(N2CCC(C(=O)NCCc3c[nH]c4ccc(Cl)cc34)C2=O)c1 (stereo not shown) [Example D159, N-(2-(5-chloro-1H-indol-3-yl)ethyl)-2-oxo-1-m-tolylpyrrolidine-3-carboxamide]",900
19,"O=C(NCCc1c[nH]c2ccc(Cl)cc12)C1CCN(c2ccccc2)C1=O (stereo not shown) [Example D64, N-(2-(5-chloro-1H-indol-3-yl)ethyl)-2-oxo-1-phenylpyrrolidine-3-carboxamide]",313

# Same assay, conditions: reduction of LDH activity of retinoic acid incubated M17-TAU P301L cells, 7 days
row,SMILES,EC50 [nM]
1,"CC(c1ccccc1)N1CCC(C(=O)NCCc2c[nH]c3ccc(Cl)cc23)C1=O (single isomer, unassigned) [D156 Fraction B, N-(2-(5-chloro-1H-indol-3-yl)ethyl)-2-oxo-1-(1-phenylethyl)pyrrolidine-3-carboxamide]",1180
